Data from US9185889B2, “CD4 T-cells and CD8zeta cells involved in mammalian host response to epithelial cell infections and uses thereof” (Indiana University Research and Technology Corporation, priority 2010, dated 2015).

What was measured:
C. muridarum = assay: Control of C. muridarum replication in C57epi.1 epithelial cells (IFU titered on McCoy monolayers); assay type: cell-based, Chlamydia muridarum
Experimental: To test whether the CD4 clones could control the Chlamydia replication in vitro, C57epi.1 monolayers in 48 well plates were untreated, or treated with IFN-γ (10 ηg/ml) for 14 h prior to infection or at the time of infection with 3 IFU of C. muridarum per cell. After addition of C. muridarum the plates were spun at 1200 rpm (300 g) for 30 minutes. Four hours after infection the inoculum was removed CD4 T cell clones were added in T cell media. 36 h post-infection, wells were scraped, harvested, and stored at −80° C. until C. muridarum titers determined on McCoy monolayers as previously described (Johnson, R. M., 2004). Recombinant murine IFN-γ at all concentrations tested (up to 1000 ρg/ml) had no effect on C. muridarum titrations done on the McCoy monolayers; maximum IFN-γ carryover in dilutions used for quantifying C. muridarum was <50 ρg/ml.
The panel of CD4 T cell clones was tested to determine the ability of specific clones to control C. muridarum replication in C57epi.1 epithelial cells (FIG. 2). Monolayers of C57epi.1 cells in 48 well plates (˜200,000 epithelial cells per well) were untreated or treated with IFN-γ, either 14 h prior to infection or at the time of infection, then infected with C. muridarum. Four hours post-infection the inoculating media was removed and replaced with T cell media containing CD4 T cell clones; 150, 000 T cells were added per well for an effector-to-target ratio of ˜0.75:1. 32 h later the wells were harvested with additional SPG buffer and recovered C. muridarum titered on McCoy monolayers to score replication. […] IFUs recovered from experimental wells were compared with identically treated (untreated or IFN-γ treated) parallel control wells (no T cells) to calculate % control replication. This normalization controls for the difference in C. muridarum replication in the untreated vs. IFN-γ treated C57epi.1 cells.
Referring now to FIG. 12A, the modest inhibitory effect of IFN-γ was reversed by blocking NO production with either MLA or NIL. […] According to FIG. 12B, C57.1epi cells were untreated (hatched bar) or pretreated with IFN-γ (10 ηg/ml×14 hours) in absence (black bar) or presence of MLA (gray bar) or NIL (light gray bar), and then infected with C. muridarum (3 IFU/cell). Wells were harvested at 36 hours postinfection and C. muridarum (IFU) quantified on McCoy monolayers. Comparisons were made to the infected (hatched bar).
Referring now to FIG. 19B, C. muridarum replication in epithelial cells, by an iNOS-independent mechanism, is controlled by IFN-γ-independent CD4 T cell clones. […] Wells were harvested 36 hours post infection and C. muridarum quantified on McCoy monolayers. […]

iNOS = biological target: T1, iNOS (Mus musculus, UniProt P29477); assay: NO production measured as nitrite by infected C57epi.1 epithelial cells with iNOS inhibitors; assay type: cell-based, murine
T1 construct: C57epi.1 is a cloned oviduct epithelial cell line derived from a C57BL/6 mouse; endogenous in cells; host or cells: C57epi.1 mouse (C57BL/6) oviduct epithelial cell line, IFN-gamma pretreated and infected with C. muridarum, with or without mouse CD4 T cell clones
Experimental: Referring now to FIG. 19A, C57 epi.1 epithelial cells, untreated (hatched bars) or pretreated with IFN-γ (10 ηg/ml×14 hours) in the absence (black bars) or presence of iNOS inhibitors MLA (gray bars) or NIL (light gray bars),—were infected with C. muridarum (3 IFU/cell). Four hours later, the inocula were removed and monolayers cocilted with and with CD4 T-cell clones uvmo-1, -2, and -3 for an additional 32 hours. Supernatants were collected at 36 hour post infection, 32 hour post T cell coculture, and analyzed for NO production measured as nitrite. […] Also, MLA and NIL were effective inhibitors of NO production, as MLA blocked>90% of IFN-γ-induced NO; NIL blocked ˜60%.
Still referring to FIG. 19A, the iNOS inhibitor MLA blocks infected epithelial nitrite production to the background level of 2 uM even in the presence of exogenous interferon gamma and CD4 T cell clones uvmo-1,-2,-3. Inhibition of iNOS activity induced by interferon gamma, and interferon gamma plus CD4 T cell clones uvmo-1,-2,-3, in infected C57epi.1 murine epithelial cells using the iNOS inhibitors N^G-Monomethyl-L-arginine (MLA) and L-N^6-(1-Iminoethyl)lysine (NIL). iNOS activity was measured as nitrite in 24 h culture supernatants. […] 24 h supernatants from uninfected C57epi.1 murine epithelial cells have nitrite levels>0<1.5 uM.

Compound | effect on the modest inhibitory effect of IFN-γ on C. muridarum replication (C. muridarum; C57epi.1 pretreated with IFN-γ, no T cells) | block of IFN-γ-induced NO (iNOS; infected C57epi.1 cells, nitrite in supernatants) | C. muridarum replication in control wells (no T cells) (C. muridarum; C57epi.1 pretreated with IFN-γ 14 h prior to infection, pooled means from two experiments) | C. muridarum replication in control wells (no T cells) (C. muridarum; IFN-γ added at the time of infection) | effect on C. muridarum titrations done on McCoy monolayers (C. muridarum; all concentrations tested (up to 1000 ρg/ml)) | induction of NO production in C57epi.1 epithelial cells (iNOS; IFN-γ 10 ηg/ml × 14 hours, infected, p<0.0001)
CC(=N)NCCCC[C@H](N)C(=O)O.Cl [NIL, L-N^6-(1-iminoethyl)lysine hydrocholoride] | reversed | ~60% | – | – | – | –
IFN-γ: Recombinant murine IFN-γ (R&D Systems) | – | – | 4±2×10^6 IFU/well | 5±1×10^6 IFU/well | no effect | roughly 6 fold
